Measured values published in ChEMBL document CHEMBL3217615, “Novel 3,5-bis(arylidiene)-4-piperidone based monocarbonyl analogs of curcumin: anticancer activity evaluation and mode of action study” (2014).

Legend:
Type in all cases: functional
NCI-H226 = assay: Growth inhibition of human NCI-H226 cells assessed as cell growth at 10^-5 M after 48 hrs by sulforhodamine B assay; details: NCI-H226, 48 h, read-out: Activity
[1] = Growth inhibition of human UACC62 cells assessed as cell growth at 10^-5 M after 48 hrs by sulforhodamine B assay; details: UACC-62, 48 h, read-out: Activity
A498 = assay: Growth inhibition of human A498 cells assessed as cell growth at 10^-5 M after 48 hrs by sulforhodamine B assay; details: A498, 48 h, read-out: Activity
[2] = Growth inhibition of human NCI-ADR-RES cells assessed as cell growth at 10^-5 M after 48 hrs by sulforhodamine B assay; details: read-out: Activity
SW-620 = assay: Growth inhibition of human SW620 cells assessed as cell growth at 10^-5 M after 48 hrs by sulforhodamine B assay; details: SW-620, 48 h, read-out: Activity
[3] = Growth inhibition of human HCT15 cells assessed as cell growth at 10^-5 M after 48 hrs by sulforhodamine B assay; details: HCT-15, 48 h, read-out: Activity
MDA-MB-435 = assay: Growth inhibition of human MDA-MB-435 cells assessed as cell growth at 10^-5 M after 48 hrs by sulforhodamine B assay; details: MDA-MB-435, 48 h, read-out: Activity
[4] = Growth inhibition of human Hs 578T cells assessed as cell growth at 10^-5 M after 48 hrs by sulforhodamine B assay; details: read-out: Activity
CCRF-CEM = assay: Growth inhibition of human CCRF-CEM cells assessed as cell growth at 10^-5 M after 48 hrs by sulforhodamine B assay; details: read-out: Activity
SR = assay: Growth inhibition of human SR cells assessed as cell growth at 10^-5 M after 48 hrs by sulforhodamine B assay; details: read-out: Activity
SNB-19 = assay: Growth inhibition of human SNB19 cells assessed as cell growth at 10^-5 M after 48 hrs by sulforhodamine B assay; details: SNB-19, 48 h, read-out: Activity
MCF7 = assay: Growth inhibition of human MCF7 cells assessed as cell growth at 10^-5 M after 48 hrs by sulforhodamine B assay; details: MCF7, 48 h, read-out: Activity
HL-60(TB) = assay: Growth inhibition of human HL-60(TB) cells assessed as cell growth at 10^-5 M after 48 hrs by sulforhodamine B assay; details: HL-60, 48 h, read-out: Activity
[5] = Growth inhibition of human BT549 cells assessed as cell growth at 10^-5 M after 48 hrs by sulforhodamine B assay; details: BT-549, 48 h, read-out: Activity
SN12C = assay: Growth inhibition of human SN12C cells assessed as cell growth at 10^-5 M after 48 hrs by sulforhodamine B assay; details: read-out: Activity
T47D = assay: Growth inhibition of human T47D cells assessed as cell growth at 10^-5 M after 48 hrs by sulforhodamine B assay; details: read-out: Activity
[6] = Growth inhibition of human HOP92 cells assessed as cell growth at 10^-5 M after 48 hrs by sulforhodamine B assay; details: HOP-92, 48 h, read-out: Activity
ACHN = assay: Growth inhibition of human ACHN cells assessed as cell growth at 10^-5 M after 48 hrs by sulforhodamine B assay; details: read-out: Activity
HT-29 = assay: Growth inhibition of human HT-29 cells assessed as cell growth at 10^-5 M after 48 hrs by sulforhodamine B assay; details: HT-29, 48 h, read-out: Activity
SK-MEL-28 = assay: Growth inhibition of human SK-MEL-28 cells assessed as cell growth at 10^-5 M after 48 hrs by sulforhodamine B assay; details: SK-MEL-28, 48 h, read-out: Activity
CAKI-1 = assay: Growth inhibition of human CAKI-1 cells assessed as cell growth at 10^-5 M after 48 hrs by sulforhodamine B assay; details: CAKI-1, 48 h, read-out: Activity
786-0 = assay: Growth inhibition of human 786-0 cells assessed as cell growth at 10^-5 M after 48 hrs by sulforhodamine B assay; details: 786-0, 48 h, read-out: Activity
MDA-MB-231 = assay: Growth inhibition of human MDA-MB-231 cells assessed as cell growth at 10^-5 M after 48 hrs by sulforhodamine B assay; details: MDA-MB-231, 48 h, read-out: Activity
A549 = assay: Growth inhibition of human A549/ATCC cells assessed as cell growth at 10^-5 M after 48 hrs by sulforhodamine B assay; details: A549, 48 h, read-out: Activity
[7] = Growth inhibition of human HCC2998 cells assessed as cell growth at 10^-5 M after 48 hrs by sulforhodamine B assay; details: HCC 2998, 48 h, read-out: Activity
NCI-H322M = assay: Growth inhibition of human NCI-H322M cells assessed as cell growth at 10^-5 M after 48 hrs by sulforhodamine B assay; details: read-out: Activity
NCI-H522 = assay: Growth inhibition of human NCI-H522 cells assessed as cell growth at 10^-5 M after 48 hrs by sulforhodamine B assay; details: NCI-H522, 48 h, read-out: Activity
KM12 = assay: Growth inhibition of human KM12 cells assessed as cell growth at 10^-5 M after 48 hrs by sulforhodamine B assay; details: KM12, 48 h, read-out: Activity
[8] = Growth inhibition of human OVCAR5 cells assessed as cell growth at 10^-5 M after 48 hrs by sulforhodamine B assay; details: OVCAR-5, 48 h, read-out: Activity
RPMI-8226 = assay: Growth inhibition of human RPMI8226 cells assessed as cell growth at 10^-5 M after 48 hrs by sulforhodamine B assay; details: RPMI-8226, 48 h, read-out: Activity
NCI-H460 = assay: Growth inhibition of human NCI-H460 cells assessed as cell growth at 10^-5 M after 48 hrs by sulforhodamine B assay; details: NCI-H460, 48 h, read-out: Activity
HCT-116 = assay: Growth inhibition of human HCT116 cells assessed as cell growth at 10^-5 M after 48 hrs by sulforhodamine B assay; details: HCT-116, 48 h, read-out: Activity
[9] = Growth inhibition of human OVCAR4 cells assessed as cell growth at 10^-5 M after 48 hrs by sulforhodamine B assay; details: OVCAR-4, 48 h, read-out: Activity
DU-145 = assay: Growth inhibition of human DU145 cells assessed as cell growth at 10^-5 M after 48 hrs by sulforhodamine B assay; details: DU-145, 48 h, read-out: Activity
IGROV-1 = assay: Growth inhibition of human IGROV1 cells assessed as cell growth at 10^-5 M after 48 hrs by sulforhodamine B assay; details: IGROV-1, 48 h, read-out: Activity
MDA-MB-468 = assay: Growth inhibition of human MDA-MB-468 cells assessed as cell growth at 10^-5 M after 48 hrs by sulforhodamine B assay; details: MDA-MB-468, 48 h, read-out: Activity

Row | Compound | growth at 10 µM (NCI-H226) [%] | growth at 10 µM [1] [%] | growth at 10 µM (A498) [%] | growth at 10 µM [2] [%] | growth at 10 µM (SW-620) [%] | growth at 10 µM [3] [%] | growth at 10 µM (MDA-MB-435) [%] | growth at 10 µM (CCRF-CEM) [%] | growth at 10 µM (SR) [%] | growth at 10 µM (SNB-19) [%] | growth at 10 µM (MCF7) [%] | growth at 10 µM (HL-60(TB)) [%] | growth at 10 µM [5] [%] | growth at 10 µM (SN12C) [%] | growth at 10 µM (T47D) [%] | growth at 10 µM [6] [%] | growth at 10 µM (ACHN) [%] | growth at 10 µM (HT-29) [%] | growth at 10 µM (SK-MEL-28) [%] | growth at 10 µM (CAKI-1) [%] | other results
1 | O=C1/C(=C/c2c(Cl)cccc2Cl)CN(S(=O)(=O)c2ccccc2)C/C1=C\c1c(Cl)cccc1Cl | 110 | 60.5 | 91.6 | 81.6 | 89.4 | 62 | 72.7 | 42.4 | 52.7 | 92.7 | 48.5 | 81 | 89.3 | 86.3 | 88.8 | 54.5 | 76.3 | 71.5 | 88.1 | 136 | growth at 10 µM [4]: 93%; growth at 10 µM (786-0): 93%; growth at 10 µM (MDA-MB-231): 71.2%; growth at 10 µM (A549): 67.3%; growth at 10 µM [7]: 103%; growth at 10 µM (NCI-H322M): 85%; growth at 10 µM (NCI-H522): 72.5%; growth at 10 µM (KM12): 74.8%; growth at 10 µM [8]: 103%; growth at 10 µM (RPMI-8226): 63.3%; growth at 10 µM (NCI-H460): 74%; growth at 10 µM (HCT-116): 61.7%; growth at 10 µM [9]: 84.6%; growth at 10 µM (DU-145): 85.8%; growth at 10 µM (IGROV-1): 100%; growth at 10 µM (MDA-MB-468): 80.4%
2 | O=C1/C(=C/c2ccc(Cl)cc2Cl)CN(S(=O)(=O)c2ccccc2)C/C1=C\c1ccc(Cl)cc1Cl | -62 | -79 | -27 | 20.5 | -15.2 | -23 | -48 | -14 | -11.6 | -39.1 | 12 | -24 | -72.8 | -47 | 7 | -25 | -24 | -27.5 | 27 | -66.1 | growth at 10 µM (786-0): -91%; growth at 10 µM (MDA-MB-231): -52%; growth at 10 µM (A549): -43%; growth at 10 µM [7]: -83%; growth at 10 µM (NCI-H322M): -29%; growth at 10 µM (NCI-H522): -51%; growth at 10 µM (KM12): -57.2%; growth at 10 µM [8]: -12%; growth at 10 µM (RPMI-8226): -29%; growth at 10 µM (NCI-H460): -60%; growth at 10 µM (HCT-116): -84%; growth at 10 µM [9]: 8%; growth at 10 µM (DU-145): 4%; growth at 10 µM (IGROV-1): -39%; growth at 10 µM (MDA-MB-468): -38%
3 | Cc1ccc(S(=O)(=O)N2C/C(=C\c3cc(F)cc(F)c3)C(=O)/C(=C/c3cc(F)cc(F)c3)C2)cc1 | 47 | -96 | -59 | 7.23 | -79 | -35 | -76.6 | -23 | -21 | -97 | -75.4 | -14 | -89 | -86 | -20 | -51 | -91.4 | -78 | -87 | -25 | growth at 10 µM [4]: 8%; growth at 10 µM (786-0): -87%; growth at 10 µM (MDA-MB-231): -53%; growth at 10 µM (A549): 7%; growth at 10 µM [7]: -89%; growth at 10 µM (NCI-H322M): 25%; growth at 10 µM (NCI-H522): -84%; growth at 10 µM (KM12): -82%; growth at 10 µM [8]: -65%; growth at 10 µM (RPMI-8226): -36%; growth at 10 µM (NCI-H460): -53%; growth at 10 µM (HCT-116): -94%; growth at 10 µM [9]: -31.4%; growth at 10 µM (DU-145): -65%; growth at 10 µM (IGROV-1): -77%; growth at 10 µM (MDA-MB-468): -73%
